Experimental data from patent US20250325531A1, “TREATMENT OF SYSTOLIC DYSFUNCTION” (MyoKardia, Inc., priority 2024, published 2025).
Where “and” joins values, the source holds several entries; their conditions need not be identical. Equal values may be shown once.

How the values were obtained:
[1] = Pharmacokinetics of single ascending doses (SAD Cohorts 1 and 2) in patients with stable HFrEF; format: in vivo, human
Excerpt: This example describes a study to establish preliminary safety and tolerability of single- and multiple-ascending oral doses of Compound I in ambulatory patients with stable heart failure with reduced ejection fraction (HFrEF). Key eligibility criteria included stable HFrEF of ischemic or nonischemic origin, treated with guideline-directed medical therapy (EF initial requirement during Screening was 20 to 45%, and was later changed by amendment to 15 to 35%). Subjects with active ischemia or severe or valvular heart disease were excluded. The study also aimed (1) to establish preliminary human PK of Compound I after single- and multiple-ascending oral doses of Compound I in patients with HFrEF; (2) to determine changes in left ventricular stroke volume (LVSV) derived from left ventricular outflow tract-velocity time integral (LVOT-VTI), left ventricular ejection fraction (LVEF) and change in left ventricular fractional shortening (LVFS) with Compound I after ascending single and multiple doses compared with Baseline and placebo as measured by transthoracic echocardiography (TTE); (3) to determine changes in systolic ejection time (SET) with Compound I after ascending single and multiple doses compared with Baseline and placebo as measured by TTE; and (4) to determine changes in pharmacodynamics (PD) dose/concentration effects (change in LVSV (derived from LVOT-VTI), LVEF, LVFS) with Compound I compared with Baseline and placebo after ascending single and multiple doses, as measured by TTE.
Part 1 was a randomized, crossover, DB, placebo-controlled, two-cohort, sequential ascending (oral) single-dose study in ambulatory patients with heart failure. All patients received placebo and 2 or 3 active doses of Compound I. Each patient underwent sequential, single-dose treatment events separated by no fewer than 5 days and no more than 14 days. Patients in Cohort 1 may also return for a fourth dosing period (open label) after the SRC reviews available data and recommends the dose. Patients enrolled prior to the implementation of Amendment 1 may be offered the opportunity to return for the open-label period. Patients in Cohort 2 participated in 2 to 4 dosing periods, based on SRC decision. Patients were randomized to one of the different dosing sequences outlined in FIG. 5A. Multiple patients could be dosed at the same time or during the same week depending on administrative issues, i.e., capacity and scheduling.
For each dosing period, patients were admitted to the clinical site on Day-1. Patients were assessed for absence of exclusion criteria (e.g., new lab abnormalities and/or conditions that indicate the patient is clinically unstable). They received Compound I or placebo in the morning of Day 1 followed by serial PK and PD assessments, as well as serial safety assessments. Patients were discharged on Day 3 (i.e., ˜48 hours following Day 1 dosing). An additional outpatient plasma PK sample was taken on the morning of Day 4 at 72 hours postdose.
(§1) Study medication consisted of Compound I 5 mg tablets, 25 mg tablets, 100 mg tablets, or matching placebo tablets. In Part 1 (SAD), Compound I or placebo was administered after an overnight fast (at least 6 hours), while in Part 2 (MAD), Compound I was administered after a 2 hour fast (Cohort A) or with food (Cohorts B, C, and D). The dose was ingested with a minimum of 240 mL of water, but more water was ingested as needed. The entire dose was administered over a period of up to 15 minutes. The time of dose used to determine future assessments was the time the last tablet was taken. In the cohorts for Part 2 (MAD), a BID regimen was used.
In Part 1 (SAD), patients fasted overnight (approximately 6 hours) through 4 hours postdose. With the exception of the water consumed with the dose, water could be ingested until approximately 1 hour prior to dosing and approximately 1 hour after dosing. If doses were split, subjects fasted 6 hours prior to the first half-dose. […]

[2] = Pharmacokinetics of multiple ascending doses (MAD Cohorts A-D) in patients with stable HFrEF; format: in vivo, human; conditions: for Accumulation Index: estimated based λz and Tau
Excerpt: This was a randomized, parallel-group, DB, placebo-controlled, adaptive design, sequential ascending (oral) multiple-dose study in stable patients with heart failure. Four MAD Cohorts (A, B, C, D) were enrolled (FIG. 5B). An SRC reviewed results from each cohort and determined the dose and confirmed initial sample size for the subsequent cohort. Additionally, the first 3 patients in each cohort had LVEF ≥25%; the SRC reviewed preliminary safety data from these patients and decided whether to open cohort enrollment to patients with LVEF <25%.
After Screening and qualification, patients were confined to a clinical testing facility from Day 1 (Check-in) to Day 11. Each patient initially received placebo BID for 2 days (Days 1 and 2) in single-blinded manner (“run-in” during acclimatization to confinement in the Clinical Testing Unit) prior to receiving the randomized DB study drug treatment on Day 3. All patients then received either placebo or active Compound I for 7 days (Days 3 through 9), with a follow-up period with patients discharged from the unit on Day 11. A final follow-up clinic visit was conducted on Day 16. More than one patient could be dosed in a cohort at the same time or during the same week depending on administrative issues, i.e., capacity and scheduling.
Patients were dosed twice daily (every 12 hours). Doses could occur ±2 hours from scheduled dosing times as long as doses were separated by at least 10 hours and by no more than 14 hours. The exception to the twice daily dosing was on Day 9 (last dose of randomized DB study drug treatment). On Day 9, a single morning dose was administered.
During the study, multiple evaluations were performed that included: serial TTE assessments (11-14 TTEs per patient on Days 1, 2, 3, 4, 7, 9, 10 and 11); PK sampling (PK sample collected concomitantly with every post-randomization echocardiogram); ECGs (on Days 2, 3, 4, 7, 9, 10, 11 and 16); troponin (collected concomitantly with every post-randomization ECG); and safety laboratory assessments. Confined patients underwent continuous telemetry. Holter monitoring was performed in all patients at baseline (Days 1-2) and at the end of double-blind treatment (Days 7-9). Vital signs were collected daily.
as §1
In Part 2 (MAD), Cohort A patients fasted for 2 hours before and 2 hours after dosing. For example, if morning dosing occurred at 8 AM, patients could have a snack at 6 AM and a full breakfast at 10 AM. If afternoon dosing occurred at 8 PM, patients could have dinner at 6 PM and a snack at 10 PM. […] Cohort B, C, and D patients ingested food with each dose.
A total of 40 subjects across 4 cohorts received 7 days of treatment with placebo or Compound I at doses of 50 mg (with food), 75 mg (1 cohort with food, 1 cohort with […]), or 100 mg (with food), BID (see FIG. 5B and Table 14).

[3] = MAD Cohort A (75 mg BID, 4 h fasting), individual subjects
[4] = MAD Cohort B (50 mg BID, with food), Mean
[5] = MAD Cohort C (75 mg BID, with food), individual subjects

SMILES: Cn1cc(S(=O)(=O)[C@@](C)(F)C2CCN(C(=O)Nc3ccon3)CC2)c(C(F)F)n1 [Compound I, (R)-4-(1-((3-(difluoromethyl)-1-methyl-1H-pyrazol-4-yl)sulfonyl)-1-fluoroethyl)-N-(isoxazol-3-yl) piperidine-1-carboxamide]
- mean (SD) Cmax ([1]; 350 mg single dose, fasted): 2760 (856) ng/mL
- AUC0-∞ ([1]; SAD Cohort 1, 175 mg (n = 8)): 53,800 hr × ng/mL
- AUC0-∞ ([1]; SAD Cohort 1, 350 mg (n = 8)): 103,000 hr × ng/mL
- Cmax ([1]; SAD Cohort 1, 350 mg (n = 8)): 2760 ng/mL
- AUC0-∞ ([1]; SAD Cohort 1, 525 mg (n = 2)): 127,000 hr × ng/mL
- AUC0-24 ([1]; SAD Cohort 1, 4th dose 350 mg (n = 1)): 70,100 hr × ng/mL
- Steady-state (Day 9) post-dose maximum concentration ([2]; Cohort A + C (n = 14), 75 mg BID): 3862 (27.7%) ng/mL
- Steady-state (Day 9) post-dose maximum concentration ([2]; Cohort B (n = 8), 50 mg BID): 2735 (17.5%) ng/mL
- Steady-state (Day 9) post-dose maximum concentration ([2]; Cohort D (n = 6), 100 mg BID): 5560 (22.8%) ng/mL
- Accumulation Index ([2]; MAD Cohort A (75 mg BID, 4 h fasting), Mean): 3.11
- AUCtau, Day 1 [2, 3]: 10610 ng·h/mL
- Accumulation Index [2, 3]: 3.82 and 3.89 and 2.79* and 2.21 and 3.00 and 2.61
- Cmax, SS [2, 4]: 2771 ng/mL
- Accumulation Index [2, 4]: 3.55
- Accumulation Index ([2]; MAD Cohort B (50 mg BID, with food), individual subjects): 3.63 and 5.03 and 4.46 and 2.93 and 3.51 and 2.42 and 3.20 (2×) and 4.23*
- Accumulation Index ([2]; MAD Cohort C (75 mg BID, with food), Mean): 3.18
- AUCtau, Day 1 [2, 5]: 10560 ng·h/mL
- Accumulation Index [2, 5]: 2.18 and 2.39 and 2.99 and 3.31 and 5.51 and 2.43 and 2.20 and 4.17 and 3.42
- Accumulation Index ([2]; MAD Cohort D (100 mg BID, with food), Mean): 3.30
- Accumulation Index ([2]; MAD Cohort D (100 mg BID, with food), individual subjects): 3.46 and 3.77 and 3.06 and 3.31 and 2.61 and 3.62
